Values joined by “and” are separate entries in the source; they are usually repeats but may differ in a detail not shown here. Equal entries are not always repeated.
Tests used:
[1] = test system: MCF-7 (breast adenocarcinoma); experiment: Inhibition of cell proliferation (MTT), MCF-7; assay type: cell-based, human; conditions: 48 h of treatment (footnote), average ±SD of three experiments
[2] = test system: A-549 (human pulmonary adenocarcinoma); experiment: Inhibition of cell proliferation (MTT), A-549; assay type: cell-based; conditions: Homo sapiens, A549, 48 h, 48 h of treatment (footnote), average ±SD of three experiments
Outline: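 Antiproliferative activity against A-549 human pulmonary adenocarcinoma cells was measured by MTT assay. Cells were seeded at 25,000/mL in 96-well plates, cultured 24 h, then exposed to compounds at various concentrations. MTT (20 µL, 5 mg·mL^−1) was added for 2 h at 37 °C, formazan dissolved in 200 µL DMSO, and absorbance read at 540 nm. IC50 values came graphically from three independent experiments.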

purified tubulin = experiment: Critical concentration (CrC) for the assembly of purified tubulin in GAB; assay type: biochemical; conditions: compound 27.5 μM, tubulin 25 μM, glycerol (GAB) and GTP assembly buffer; control 7.9 ± 1.2
Protocol: The effect on the self-assembly of tubulin was determined by measuring the critical concentration (CrC).

c-Myc gene = c-Myc gene expression by RT-qPCR in HT-29 cells; assay type: cell-based, human
Protocol: The effect on the expression of VEGF, hTERT and c-Myc genes has been studied for CA-4 and its derivatives that show selectivity indexes higher than 0.9 on the HT-29 cell line. The studied derivatives, together with the concentrations to which they have been tested, are CA-4 (15 μM); 4.1 (Gly, 5 μM); 4.5 (L-Pro, 25 μM); 4.9 (L-Met, 25 μM); 6.2 (D-Leu, 25 μM); 6.3 (D-Phe, 25 μM); 6.4 (D-Pro, 25 μM) and 6.5 (D-Ser, 10 μM). The expression of the genes was determined by RT-qPCR methodology, as described in the Materials and Methods section.
As regards AmCA-4 derivatives, the effect on the expression of the VEGF, hTERT and c-Myc genes has been studied on those that show IC50 in the low nanomolar range on the HT-29 cell line and/or on compounds whose selectivity indexes with respect to this cell line are higher than 1. The studied compounds, together with the concentrations to which they have been tested, are: CA-4 (15 μM), AmCA-4 (15 nM), 7.1 (7 nM), 7.2 (1.5 nM), 7.3 (4 nM), 7.4 (15 nM), 7.5 (2 nM), 7.7 (7 nM), 7.8 (15 nM), 7.9 (30 nM), 8.1 (7 nM), 8.2 (3 nM), 8.3 (10 nM), 8.4 (1.5 nM), 8.5 (4 nM), 8.7 (7 nM), 8.8 (3 nM) and 8.9 (4 nM).
HT-29 cells at 70–80% confluence were collected, and 1.5 × 10^5 cells were placed in a six-well plate in 1.5 mL of the medium. After 24 h, cells were incubated with the corresponding compounds for 48 h. Cells were collected, and the total cellular RNA from the HT-29 cells was isolated using an Ambion RNA Extraction Kit, according to the manufacturer’s instructions. The cDNA was synthesized by MMLV-RT with […] of extracted RNA and oligo(dT)15, according to the manufacturer’s instructions. Genes were amplified by a thermal cycler and StepOnePlus™ TaqMan® probes. TaqMan® Gene Expression Master Mix Fast, containing the appropriate buffer for the amplification conditions, dNTPs, thermostable DNA polymerase enzyme and a passive reference probe, was used. To amplify each of the genes, the predesigned primers sold by Life Technologies TaqMan® Gene Expression Assays Hs99999903-m1 (β-actin), Hs00900055-m1 (VEGF), Hs00972646-m1 (hTERT) and Hs00153408-m1 (c-Myc) were used.

[3] = Homo sapiens, MCF7, 48 h, Table 2
[4] = Homo sapiens, MCF7, 48 h, Table 1
[5] = Homo sapiens; HT-29, 48 h, 25 μM; control 100
[6] = HT-29, 48 h; discussion; concentration per compound
[7] = Homo sapiens, HT-29, 48 h, 25 μM, control 100
[8] = Homo sapiens, HT-29, 48 h, 7 nM, control 100
[9] = Homo sapiens, HT-29, 48 h, 4 nM, control 100

Row | SMILES | IC50 [1, 3] [nM] | IC50 ([2]; Table 2) [nM] | CrC (critical concentration) (purified tubulin) | IC50 ([2]; Table 1) [nM] | further results
1 | COc1ccc(/C=C\c2cc(OC)c(OC)c(OC)c2)cc1N [AmCA-4, 3′-aminocombretastatin A-4] | 8 ± 1 | 117 ± 7 | 23 ± 3 µM | – | mrna remaining at 0.015 µM (c-Myc gene; Homo sapiens; HT-29, 48 h, 15 nM; control 100): 58%
2 | COc1ccc(/C=C\c2cc(OC)c(OC)c(OC)c2)cc1O [CA-4, combretastatin A-4] | – | – | 21.5 µM and 21.5 ± 0.8 µM | 428 ± 4 | IC50 ([1]; Homo sapiens, MCF7, Table 1): 1000 ± 200 nM; mrna remaining at 15 µM (c-Myc gene; Homo sapiens; HT-29, 48 h, 15 μM; control (DMSO) 100; normalized to β-actin): 35%
3 | COc1ccc(/C=C\c2cc(OC)c(OC)c(OC)c2)cc1OCC(=O)NCC(=O)O [Compound 4.1] | – | – | 9.3 ± 0.4 µM | 24000 ± 4000 | IC50 [1, 4]: 6000 ± 1000 nM; mrna remaining at 5 µM (c-Myc gene; Homo sapiens, HT-29, 48 h, 5 μM, control 100): 62%
4 | COc1ccc(/C=C\c2cc(OC)c(OC)c(OC)c2)cc1OCC(=O)N[C@H](C(=O)O)C(C)C [Compound 4.2] | – | – | 9.3 ± 0.3 µM | 17000 ± 2000 | IC50 ([1]; Homo sapiens, MCF7, Table 1): 7000 ± 1000 nM; mrna remaining at 25 µM (c-Myc gene; [5]): 71%
5 | COc1ccc(/C=C\c2cc(OC)c(OC)c(OC)c2)cc1OCC(=O)N[C@@H](CCSC)C(=O)O [Compound 4.9] | – | – | 8.6 ± 0.4 µM | > 300000 | IC50 [1, 4]: 13000 ± 2000 nM; downregulation of c-Myc gene expression (c-Myc gene; [6]): more than 55%; mrna remaining at 25 µM (c-Myc gene; [7]): 37%
6 | COc1ccc(/C=C\c2cc(OC)c(OC)c(OC)c2)cc1OCC(=O)N[C@H](CC(C)C)C(=O)O [Compound 6.2] | – | – | 11 ± 3 µM | 68000 ± 1000 | IC50 [1, 4]: 25000 ± 2000 nM; mrna remaining at 25 µM (c-Myc gene; [7]): 68%
7 | COc1ccc(/C=C\c2cc(OC)c(OC)c(OC)c2)cc1OCC(=O)N[C@H](Cc1ccccc1)C(=O)O [Compound 6.3] | – | – | 9.2 ± 0.4 µM | 60000 ± 4000 | IC50 ([1]; Homo sapiens, MCF7, Table 1): 43000 ± 3000 nM; mrna remaining at 25 µM (c-Myc gene; [5]): 55%
8 | COc1ccc(/C=C\c2cc(OC)c(OC)c(OC)c2)cc1OCC(=O)N1CCC[C@@H]1C(=O)O [Compound 6.4] | – | – | 10 ± 3 µM | 95000 ± 14000 | IC50 [1, 4]: 55000 ± 13000 nM; mrna remaining at 25 µM (c-Myc gene; [7]): 81%
9 | COc1ccc(/C=C\c2cc(OC)c(OC)c(OC)c2)cc1OCC(=O)N[C@H](CO)C(=O)O [Compound 6.5] | – | – | 9.25 ± 0.16 µM | > 150000 | IC50 [1, 4]: 12000 ± 1000 nM; mrna remaining at 10 µM (c-Myc gene; Homo sapiens, HT-29, 48 h, 10 μM, control 100): 94%
10 | COc1ccc(/C=C\c2cc(OC)c(OC)c(OC)c2)cc1NC(=O)CNC(=O)OCC1c2ccccc2-c2ccccc21 [Compound 7.1] | 4.8 ± 0.5 | 186 ± 11 | 11 ± 4 µM | – | mrna remaining at 0.007 µM (c-Myc gene; [8]): 58%
11 | COc1ccc(/C=C\c2cc(OC)c(OC)c(OC)c2)cc1NC(=O)[C@H](Cc1ccccc1)NC(=O)OCC1c2ccccc2-c2ccccc21 [Compound 7.5] | 14 ± 4 | 270 ± 50 | 8.1 ± 1.6 µM | – | downregulation of c-Myc gene expression (c-Myc gene; [6]): more than 60%; mrna remaining at 0.002 µM (c-Myc gene; Homo sapiens, HT-29, 48 h, 2 nM, control 100): 40%
12 | COc1ccc(/C=C\c2cc(OC)c(OC)c(OC)c2)cc1NC(=O)[C@H](CCSC)NC(=O)OCC1c2ccccc2-c2ccccc21 [Compound 7.9] | 5.1 ± 0.3 | 407 ± 23 | 7.1 ± 0.4 µM | – | mrna remaining at 0.03 µM (c-Myc gene; Homo sapiens, HT-29, 48 h, 30 nM, control 100): 61%
13 | COc1ccc(/C=C\c2cc(OC)c(OC)c(OC)c2)cc1NC(=O)CN [Compound 8.1] | 9 ± 4 | 400 ± 70 | 10.2 ± 1.8 µM | – | mrna remaining at 0.007 µM (c-Myc gene; [8]): 54%
14 | COc1ccc(/C=C\c2cc(OC)c(OC)c(OC)c2)cc1NC(=O)[C@H](C)N [Compound 8.2] | < 5 | 611 ± 16 | 13.9 ± 1.5 µM | – | IC50 ([1]; Table 2): 4.8 ± 0.5 nM; mrna remaining at 0.003 µM (c-Myc gene; Homo sapiens, HT-29, 48 h, 3 nM, control 100): 97%
15 | COc1ccc(/C=C\c2cc(OC)c(OC)c(OC)c2)cc1NC(=O)[C@@H](N)C(C)C [Compound 8.3] | 13 ± 2 | 490 ± 100 | 9.3 ± 0.5 µM | – | mrna remaining at 0.01 µM (c-Myc gene; Homo sapiens, HT-29, 48 h, 10 nM, control 100): 62%
16 | COc1ccc(/C=C\c2cc(OC)c(OC)c(OC)c2)cc1NC(=O)[C@@H](N)Cc1ccccc1 [Compound 8.5] | – | 141 ± 3 | 9.1 ± 0.9 µM | – | mrna remaining at 0.004 µM (c-Myc gene; [9]): 74%
17 | COc1ccc(/C=C\c2cc(OC)c(OC)c(OC)c2)cc1NC(=O)[C@@H](N)C(C)O (stereo partly shown) [Compound 8.7] | 12 ± 1 | 410 ± 40 | 12.3 ± 0.6 µM | – | downregulation of c-Myc gene expression (c-Myc gene; [6]): more than 60%; mrna remaining at 0.007 µM (c-Myc gene; [8]): 37%
18 | COc1ccc(/C=C\c2cc(OC)c(OC)c(OC)c2)cc1NC(=O)[C@@H](N)CCSC [Compound 8.9] | < 5 | 90 ± 30 | 8.5 ± 1.2 µM | – | IC50 ([1]; Table 2): 3.4 ± 1.2 nM; mrna remaining at 0.004 µM (c-Myc gene; [9]): 70%

— publication PMC7037732, “Synthesis of Combretastatin A-4 and 3′-Aminocombretastatin A-4 derivatives with Aminoacid Containing Pendants and Study of their Interaction with Tubulin and as Downregulators of the VEGF, hTERT and c-Myc Gene Expression” (Molecules, 2020)
